{"source": "patent US8748445B2", "about": "“Methods for treating glioma” (The UAB Research Foundation, priority 2004, dated 2014)", "key": {"[1]": {"system": "primary astrocyte cultures", "assay": "growth of primary astrocyte cultures", "format": "cell-based", "conditions": "(S)-4-CPG 0.25 mM and 0.5 mM (FIG. 3C); sulfasalazine data not shown"}, "glioma cells [2]": {"system": "glioma cells", "assay": "cell cycle: total DNA content by flow cytometry (propidium iodide)", "format": "cell-based, human", "conditions": "0.5 mM (FIG. 4D)", "procedure": "To test whether inhibition of cystine uptake affects a specific stage of the cell cycle, changes in total DNA content were measured using flow cytometry following treatment with 0.5 mM (S)-4-CPG and 0.5 mM sulfasalazine. Cells were fixed with para-formaldehyde and stained with the nuclear marker propidium iodide after incubation with drugs."}, "glioma cells [3]": {"system": "glioma cells", "assay": "total intracellular glutathione content in glioma cells", "format": "cell-based, human", "procedure": "To determine if limiting cystine uptake via system Xc reduces the total intracellular glutathione content (GSH and glutathione disulfide), intracellular glutathione concentrations were determined in the presence and absence of sulfasalazine."}, "[4]": {"system": "cortical neuronal cultures", "assay": "survival of cortical neuronal cultures", "format": "cell-based", "conditions": "(S)-4-CPG 0.25 mM and 0.5 mM (FIG. 3C); sulfasalazine data not shown"}, "D-54MG glioma cells [5]": {"system": "D-54MG glioma cells", "assay": "BrdU incorporation, ELISA-based assay", "format": "cell-based, human", "procedure": "(§1) BrdU incorporation was measured using an ELISA-based assay. D-54MG cells were grown in the presence or absence of inhibitors for 24 hours and pulsed for 2 hours with BrdU. The cells were cultured for an additional 48 hours and the amount of incorporated BrdU was measured using alkaline phosphatase conjugated to anti-BrdU antibodies. […] The inhibition of DNA synthesis was also seen in immunocytochemical studies."}, "glioma cells [6]": {"system": "glioma cells", "assay": "cell death by flow cytometry using the Live/Dead assay kit", "format": "cell-based, human", "procedure": "(§2) Because an accumulation of ROS can lead to apoptotic cell death, the ability of system Xc inhibitors to induce apoptosis in glioma cells was examined. […] Often apoptosis is dependent on caspase activities, so it was determined whether the system Xc inhibitors induce activated caspase-3, which is the convergent enzyme in the caspase-dependent signaling cascade. […] With 1 mM sulfasalazine, 90% of cells died over the 5 d incubation (FIG. 5E)."}, "[7]": {"system": "glioma cell lines (D-54MG, U-87MG, U-251MG and STTG1) and a primary glioma culture (GBM62)", "assay": "growth curves of glioma cells over 5 days", "format": "cell-based, human", "procedure": "To examine whether the depletion of glutathione via inhibition of cystine uptake by system Xc affects the growth of glioma cells, growth curves for 4 glioma cell lines (D-54MG, U-87MG, U-251MG and STTG1) and a primary glioma culture (GBM62) were established.\nIn the presence of 0.25 mM (S)-4-CPG, growth of D-54MG cells indeed recovered by the addition of fourfold excess of cystine (FIG. 3E), but not with glutamate (FIG. 3D), the second substrate for system Xc."}, "D-54MG glioma cells [8]": {"system": "D-54MG glioma cells", "assay": "BrdU incorporation, immunocytochemical studies", "format": "cell-based, human", "conditions": "DAPI co-staining (FIG. 4B)", "procedure": "as §1"}, "D-54MG glioma cells [9]": {"system": "D-54MG glioma cells", "assay": "chromosomal DNA fragmentation (apoptosis) by flow cytometry", "format": "cell-based, human", "conditions": "1 mM for 3 days; D-54MG (FIG. 5B)", "procedure": "as §2"}, "caspase-3": {"system": "caspase-3", "assay": "activated caspase-3 by Western blot analysis", "format": "cell-based, human", "conditions": "0.5 mM; D-54MG cells (FIG. 5C)", "procedure": "as §2"}, "glioma cells [10]": {"system": "glioma cells", "assay": "rescue from (S)-4-CPG-induced cell death by caspase inhibitor", "format": "cell-based, human", "conditions": "Boc-D-FMK 100 μM; (S)-4-CPG 0.25 mM (FIG. 5D)", "procedure": "Because an accumulation of ROS can lead to apoptotic cell death, the ability of system Xc inhibitors to induce apoptosis in glioma cells was examined. Exposure of D-54MG glioma cells to 1 mM (S)-4-CPG for 3 days caused 17% of the cell population to be positive for chromosomal DNA fragmentation, a classic manifestation of apoptosis (FIG. 5B). Often apoptosis is dependent on caspase activities, so it was determined whether the system Xc inhibitors induce activated caspase-3, which is the convergent enzyme in the caspase-dependent signaling cascade. […] In the continued presence of 0.5 mM (S)-4-CPG over a 5 d period, 60% of glioma cells died (FIG. 5E). With 1 mM sulfasalazine, 90% of cells died over the 5 d incubation (FIG. 5E)."}, "system Xc": {"target": "T1, system Xc (Homo sapiens, UniProt Q9UPY5)", "T1 construct": "reduced ^35S-labeled cystine uptake by 60-80% in glioma lines (d-54MG, U-87MG and U-251MG) and a primary glioma culture (GBM62); endogenous in cells; host or cells: human glioma cell lines D-54MG, U-87MG, U-251MG and primary glioma culture GBM62", "T1 sequence (Q9UPY5 1-501)": "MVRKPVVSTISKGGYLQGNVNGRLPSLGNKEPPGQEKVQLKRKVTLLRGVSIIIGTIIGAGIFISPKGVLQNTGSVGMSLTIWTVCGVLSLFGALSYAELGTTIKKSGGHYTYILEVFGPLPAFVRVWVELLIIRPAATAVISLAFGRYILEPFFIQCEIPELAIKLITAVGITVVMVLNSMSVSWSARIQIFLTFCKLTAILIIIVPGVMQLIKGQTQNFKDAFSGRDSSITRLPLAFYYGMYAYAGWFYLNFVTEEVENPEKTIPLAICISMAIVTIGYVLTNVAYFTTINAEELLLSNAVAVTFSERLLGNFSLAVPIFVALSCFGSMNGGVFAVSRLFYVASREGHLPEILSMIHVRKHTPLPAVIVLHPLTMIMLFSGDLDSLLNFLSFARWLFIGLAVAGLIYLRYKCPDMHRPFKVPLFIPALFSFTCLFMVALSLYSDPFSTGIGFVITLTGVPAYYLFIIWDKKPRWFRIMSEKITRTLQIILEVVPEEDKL", "T1 sequence (P08195 1-529 partner)": "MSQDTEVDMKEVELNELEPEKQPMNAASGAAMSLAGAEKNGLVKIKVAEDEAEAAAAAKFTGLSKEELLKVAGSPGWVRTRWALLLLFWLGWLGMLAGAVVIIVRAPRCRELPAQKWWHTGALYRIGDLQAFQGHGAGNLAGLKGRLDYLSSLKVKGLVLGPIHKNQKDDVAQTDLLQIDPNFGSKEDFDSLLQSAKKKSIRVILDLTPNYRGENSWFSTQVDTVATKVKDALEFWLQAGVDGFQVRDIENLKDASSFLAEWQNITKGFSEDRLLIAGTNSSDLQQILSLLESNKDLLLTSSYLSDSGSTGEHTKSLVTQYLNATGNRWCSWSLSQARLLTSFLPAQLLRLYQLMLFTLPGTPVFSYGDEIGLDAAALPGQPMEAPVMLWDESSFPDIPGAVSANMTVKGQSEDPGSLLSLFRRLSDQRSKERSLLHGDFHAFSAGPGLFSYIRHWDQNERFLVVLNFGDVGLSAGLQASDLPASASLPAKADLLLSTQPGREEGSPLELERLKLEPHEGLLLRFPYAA", "assay": "35S-labeled cystine uptake in glioma lines and primary glioma culture", "format": "cell-based", "conditions": "5 mM L glutamate; data not shown", "description": "System Xc is a glutamate-cystine exchanger and can therefore be inhibited if the outward directed gradient for glutamate is eliminated by exposure to high concentrations of extracellular glutamate. The principal hypothesis in this study is that system Xc serves as a pipeline for cellular cystine uptake, with glutamate release being an obligatory by-product. Cystine uptake is the rate-limiting step for the synthesis of GSH, which is the main intracellular antioxidant that protects cells from oxidative stress and resulting reactive oxygen species (ROS) (Jefferies et al., 2003)."}}, "note": "Entries after “also recorded” stand apart in the source; their conditions may differ.", "data": [{"compound": "N[C@H](C(=O)O)c1ccc(C(=O)O)cc1", "note": "[(S)-4-CPG, (S)-4-carboxyphenylglycine]", "values": [{"measurement": "growth of primary astrocyte cultures", "setting": "[1]", "value": "negligible impact; also recorded: Neither (S)-4-CPG (FIG. 3C) nor sulfasalazine (data not shown) affected"}, {"measurement": "cell cycle distribution (total DNA content)", "setting": "glioma cells [2]", "value": "a reduction of cells in G2 phase and an increase in cells in S phase"}, {"measurement": "intracellular glutathione concentration", "setting": "glioma cells [3]; 0.25 mM, glioma cells D-54MG, U-87MG, U-251MG and primary glioma culture GBM64 (FIG. 2F)", "value": "depleted intracellular glutathione concentration"}, {"measurement": "survival/growth of cortical neuronal cultures", "setting": "[4]", "value": "negligible impact; also recorded: Neither (S)-4-CPG (FIG. 3C) nor sulfasalazine (data not shown) affected"}, {"measurement": "reduction of incorporation of BrdU into chromosomal DNA", "setting": "D-54MG glioma cells [5]; 0.25 mM, within 48 hours, D-54MG (FIG. 4A)", "value": 50, "unit": "%"}, {"measurement": "reduction of BrdU incorporation relative to 0.25 mM", "setting": "D-54MG glioma cells [5]; 0.5 mM, D-54MG (FIG. 4A)", "value": "somewhat larger reduction"}, {"measurement": "glioma cells died", "setting": "glioma cells [6]; 0.5 mM, continued presence over a 5 d period (FIG. 5E)", "value": 60, "unit": "%"}, {"measurement": "growth of glioma cells", "setting": "[7]; 5 days, 0.1 and 0.25 mM (S)-4-CPG, 0.25 and 0.5 mM sulfasalazine, all glioma cell lines and GBM62 (FIGS. 3A, 3B)", "value": "dose-dependent growth inhibitions"}, {"measurement": "incorporation of BrdU, immunocytochemistry", "setting": "D-54MG glioma cells [8]", "value": "virtually abolished incorporation of BrdU"}, {"measurement": "cell population positive for chromosomal DNA fragmentation", "setting": "D-54MG glioma cells [9]", "value": 17, "unit": "%"}, {"measurement": "activated form of caspase-3", "setting": "caspase-3", "value": "increased the activated form of caspase-3"}]}, {"compound": "COC(=O)CC(NC(=O)OC(C)(C)C)C(=O)CF", "note": "[Boc-D-FMK, Boc Asp-fluoromethylketone]", "values": [{"measurement": "rescue from cell death induced by (S)-4-CPG", "setting": "glioma cells [10]", "value": "a significant percentage of cells were rescued from cell death"}]}, {"compound": "N[C@@H](CSSC[C@H](N)C(=O)O)C(=O)O", "note": "[cystine]", "values": [{"measurement": "reversal of inhibition of BrdU incorporation by exogenous cystine", "setting": "D-54MG glioma cells [5]; inhibition caused by 0.5 mM (S)-4-CPG and 0.5 mM sulfasalazine (FIG. 4C)", "value": "able to reverse the inhibition of BrdU incorporation"}, {"measurement": "prevention of cell death induced by (S)-4-CPG", "setting": "glioma cells [6]; 0.5 mM (S)-4-CPG with 1 mM cystine (FIG. 5E)", "value": "completely prevented"}, {"measurement": "growth of D-54MG cells in the presence of (S)-4-CPG", "setting": "[7]; 0.25 mM (S)-4-CPG plus fourfold excess of cystine (FIG. 3E)", "value": "recovered"}]}, {"compound": "N[C@@H](CCC(=O)O)C(=O)O", "note": "[glutamate]", "values": [{"measurement": "restoration of intracellular glutathione levels", "setting": "glioma cells [3]; L-glutamate with system Xc inhibitor (FIG. 3D)", "value": "failed to restore intracellular glutathione levels"}, {"measurement": "reversal of growth inhibition by (S)-4-CPG", "setting": "[7]; 1 mM glutamate with 0.25 mM (S)-4-CPG (FIG. 3D)", "value": "failed to overcome the inhibitory effect"}, {"measurement": "competitive inhibition of cystine uptake compared with both drugs", "setting": "system Xc", "value": "comparable"}]}, {"compound": "CCOC(=O)CNC(=O)[C@H](CS)NC(=O)CC[C@H](N)C(=O)O", "note": "[glutathione ethyl ester]", "values": [{"measurement": "intracellular glutathione levels on coincubation", "setting": "glioma cells [3]; sulfasalazine (0.4 mM) treated D-54MG glioma cells (FIG. 6A)", "value": "replenished intracellular glutathione levels"}, {"measurement": "D-54MG glioma cell growth on coincubation", "setting": "[7]; after treatment with 0.4 mM sulfasalazine or (S)-4-CPG, GSHest 1 mM", "value": "completely restored D-54MG glioma cell growth"}]}, {"compound": "vitamin E", "values": [{"measurement": "growth of D-54MG glioma cells with free radical scavenger", "setting": "[7]; in the presence of (S)-4-CPG (FIG. 5A)", "value": "partially restored"}]}]}
